Measured values as given in article PMC6017874, “Synthesis of New C- and N-β-D-Glucopyranosyl Derivatives of Imidazole, 1,2,3-Triazole and Tetrazole, and Their Evaluation as Inhibitors of Glycogen Phosphorylase” (Molecules : A Journal of Synthetic Chemistry and Natural …, 2018).
pIC50, pKi: −log10 of the molar value. Like-named read-outs stand apart in the source and are kept apart here.

Experiments:
[1] = target: T1, rabbit muscle glycogen phosphorylase b (RMGPb) (Oryctolagus cuniculus, UniProt P00489); assay: Inhibition of rabbit muscle glycogen phosphorylase b (enzyme kinetic assay); assay type: biochemical; parameters: key to Inhibition: N.I.: no inhibition at 625 μM concentration; conditions: for Inhibition: N.I. = no inhibition at 625 μM concentration; for inhibition of RMGPb (in words): investigated concentration range, max 625 μM
T1 sequence (P00489 1-843): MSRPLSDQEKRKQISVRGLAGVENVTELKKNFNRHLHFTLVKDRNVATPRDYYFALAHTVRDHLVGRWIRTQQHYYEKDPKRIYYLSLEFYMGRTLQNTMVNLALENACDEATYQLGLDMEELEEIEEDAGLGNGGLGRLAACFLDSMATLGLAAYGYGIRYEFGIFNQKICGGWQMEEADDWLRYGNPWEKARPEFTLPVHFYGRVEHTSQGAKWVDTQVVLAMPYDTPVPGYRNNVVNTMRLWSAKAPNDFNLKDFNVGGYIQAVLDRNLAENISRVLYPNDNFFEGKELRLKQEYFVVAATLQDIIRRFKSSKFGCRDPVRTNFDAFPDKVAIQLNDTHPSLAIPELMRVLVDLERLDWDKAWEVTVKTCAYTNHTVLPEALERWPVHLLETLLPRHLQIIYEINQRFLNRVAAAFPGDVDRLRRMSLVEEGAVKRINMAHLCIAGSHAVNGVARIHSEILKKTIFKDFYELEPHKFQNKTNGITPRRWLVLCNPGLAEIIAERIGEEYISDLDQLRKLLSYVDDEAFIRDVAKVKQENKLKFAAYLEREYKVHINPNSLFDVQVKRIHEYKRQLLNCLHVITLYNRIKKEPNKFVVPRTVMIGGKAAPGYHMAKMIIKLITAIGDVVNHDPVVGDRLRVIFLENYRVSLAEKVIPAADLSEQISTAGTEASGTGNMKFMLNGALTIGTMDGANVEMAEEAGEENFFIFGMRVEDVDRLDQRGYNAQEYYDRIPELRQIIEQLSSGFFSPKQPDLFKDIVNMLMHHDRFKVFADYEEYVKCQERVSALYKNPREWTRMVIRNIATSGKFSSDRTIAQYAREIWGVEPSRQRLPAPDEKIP
Protocol: The new compounds were assayed against rabbit muscle glycogen phosphorylase b enzyme (RMGPb) as described earlier and the results are collected in Table 5. The inefficiency of C-glucopyranosyl 1,2,3-triazoles 5 (entries 4–6) as compared to the micromolar inhibition of the N-glucopyranosyl counterparts II in Table 2 came as a surprise, since the size of the heterocycle and the position of the H-bond donor and acceptor sites of the ring must not have been altered by the interchange of the substituents. A comparison of the inhibitory efficiency of N-benzoyl-β-D-gluco-pyranosylamine Ib (entry 1) with its “reversed” counterpart N-phenyl-2,6-anhydro-D-glycero-D-gulo-heptonamide 20 (shown in entry 3) results in a ratio of 38–67 (~53 as an average).

[2] = target: T1, rabbit muscle glycogen phosphorylase b (RMGPb); conditions: cited from earlier work

OC[C@H]1O[C@@H](c2cn(-c3ccccc3)nn2)[C@H](O)[C@@H](O)[C@@H]1O [5a, 1-Phenyl-4-(β-D-glucopyranosyl)-1H-1,2,3-triazole]
Inhibition ([1]; RMGPb): N.I. | pKi ([1]; RMGPb, inhibition constants of IIb multiplied by the average factor ~53, read-out: predicted inhibition constant): 2.07 to 2.10

OC[C@H]1O[C@@H](c2cn(-c3ccc4ccccc4c3)nn2)[C@H](O)[C@@H](O)[C@@H]1O [5b, 1-(Naphthalen-2-yl)-4-(β-D-glucopyranosyl)-1H-1,2,3-triazole]
Inhibition ([1]; RMGPb): N.I. | melting point: 224 to 225 °C

OC[C@H]1O[C@@H](c2cn(-c3cccc4ccccc34)nn2)[C@H](O)[C@@H](O)[C@@H]1O [5c, 1-(Naphthalen-1-yl)-4-(β-D-glucopyranosyl)-1H-1,2,3-triazole]
Inhibition ([1]; RMGPb): N.I.

OC[C@H]1O[C@@H](c2nnn(-c3ccccc3)n2)[C@H](O)[C@@H](O)[C@@H]1O [13a, 2-Phenyl-5-(β-D-glucopyranosyl)-2H-tetrazole]
Inhibition ([1]; RMGPb): N.I.

Cn1nnc([C@@H]2O[C@H](CO)[C@@H](O)[C@H](O)[C@H]2O)n1 [13e, 2-Methyl-5-(β-D-glucopyranosyl)-2H-tetrazole]
Inhibition ([1]; RMGPb): N.I.

Cn1nnnc1[C@@H]1O[C@H](CO)[C@@H](O)[C@H](O)[C@H]1O [14e, 1-Methyl-5-(β-D-glucopyranosyl)-1H-tetrazole]
Inhibition ([1]; RMGPb): N.I.

OC[C@H]1O[C@@H](n2nnc(-c3ccccc3)n2)[C@H](O)[C@@H](O)[C@@H]1O [18a, 5-Phenyl-2-(β-D-glucopyranosyl)-2H-tetrazole]
pIC50 ([1]; RMGPb): 3.22 | pKi ([1]; RMGPb, calculated from IC50 by the Cheng-Prusoff equation, read-out: calculated Ki): 3.49 | inhibition of RMGPb (in words) [1]: very weak inhibition

Cc1nnn([C@@H]2O[C@H](CO)[C@@H](O)[C@H](O)[C@H]2O)n1 [18e, 5-Methyl-2-(β-D-glucopyranosyl)-2H-tetrazole]
Inhibition ([1]; RMGPb): N.I.

OC[C@H]1O[C@@H](n2nnnc2-c2ccccc2)[C@H](O)[C@@H](O)[C@@H]1O [19a, 5-Phenyl-1-(β-D-glucopyranosyl)-1H-tetrazole]
Inhibition ([1]; RMGPb): N.I.

Cc1nnc([C@@H]2O[C@H](CO)[C@@H](O)[C@H](O)[C@H]2O)o1 [IIIa]
pKi [2]: 3.67

OC[C@H]1O[C@@H](c2nnc(-c3ccccc3)o2)[C@H](O)[C@@H](O)[C@@H]1O [IIIb]
inhibition at 625 μM ([2]; RMGPb): 10% at 625 μM [37]

OC[C@H]1O[C@@H](c2nnc(-c3ccc4ccccc4c3)o2)[C@H](O)[C@@H](O)[C@@H]1O [IIIc]
inhibition at 625 μM ([2]; RMGPb): 10% at 625 μM [37]

Cc1nc([C@@H]2O[C@H](CO)[C@@H](O)[C@H](O)[C@H]2O)no1 [IVa]
inhibition at 625 μM (in words) ([2]; RMGPb): No inh. at 625 μM [38]

OC[C@H]1O[C@@H](c2noc(-c3ccccc3)n2)[C@H](O)[C@@H](O)[C@@H]1O [IVb]
inhibition at 625 μM ([2]; RMGPb): 10% at 625 μM [38]

OC[C@H]1OC(c2nnn[nH]2)[C@H](O)[C@@H](O)[C@@H]1O (some centres unmarked) [VIII, 5-Glucosyltetrazole]
inhibition at 625 μM (in words) ([2]; RMGPb): No inh. at 625 μM [35] | inhibition of RMGPb (in words) [2]: inactive

OC[C@H]1O[C@@H](n2cnc(-c3ccccc3)c2)[C@H](O)[C@@H](O)[C@@H]1O [compound 8, 1-(β-D-Glucopyranosyl)-4-phenyl-1H-imidazole]
Inhibition ([1]; RMGPb): N.I. | inhibition of RMGPb (in words) [1]: non-inhibitory | melting point: 273 to 274 °C

O=C(Nc1ccccc1)[C@@H]1O[C@H](CO)[C@@H](O)[C@H](O)[C@H]1O [compound 20, N-phenyl-2,6-anhydro-D-glycero-D-gulo-heptonamide, reference compound]
average ratio of inhibitory efficiency of Ib to its reversed counterpart 20 ([1]; RMGPb, average of the 38–67 ratio): ~ 53 | ratio of inhibitory efficiency of Ib to its reversed counterpart 20 ([1]; RMGPb, from literature Ki values of Ib and 20): 38–67 | pKi ([2]; RMGPb): 2.27
